Data as given in patent US11730720B2, “ALK5 inhibitors” (THERAVANCE BIOPHARMA R&D IP, LLC, priority 2018, dated 2023).

Assays:
[1] = tested on: TGF-β-stimulated SMAD3 phosphorylation in BEAS-2B cells; test: Cellular ALK5 potency assay, inhibition of TGF-β stimulated pSMAD3 formation in BEAS-2B cells; assay type: cell-based; details: Homo sapiens, inhibition of TGF-β (10 ng/mL) stimulated pSMAD3 formation, 1 hour compound incubation, read-out: BEAS2B pIC50 (converted)
Procedure, shortened: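 Phospho-SMAD3 was quantified by AlphaLISA in lysates of human lung epithelial BEAS-2B cells. Compound was added 1 h (37 °C, HEPES/BSA-supplemented HBSS) before a 30 min challenge with 10 ng/mL TGF-β. Values are pIC50 relative to stimulated cells without compound.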

[2] = molecular target: T1, recombinant human ALK5 (TGF-βR1) protein (Homo sapiens, UniProt P36897); test: Biochemical ALK5 (TGF-βR1) assay to measure pKi (LANCE Ultra ULight kinase assay); details: apparent pKi, converted from pIC50 using the Cheng-Prusoff equation
T1 construct: purchased Life Technologies PR9075A
T1 sequence (P36897 34-503): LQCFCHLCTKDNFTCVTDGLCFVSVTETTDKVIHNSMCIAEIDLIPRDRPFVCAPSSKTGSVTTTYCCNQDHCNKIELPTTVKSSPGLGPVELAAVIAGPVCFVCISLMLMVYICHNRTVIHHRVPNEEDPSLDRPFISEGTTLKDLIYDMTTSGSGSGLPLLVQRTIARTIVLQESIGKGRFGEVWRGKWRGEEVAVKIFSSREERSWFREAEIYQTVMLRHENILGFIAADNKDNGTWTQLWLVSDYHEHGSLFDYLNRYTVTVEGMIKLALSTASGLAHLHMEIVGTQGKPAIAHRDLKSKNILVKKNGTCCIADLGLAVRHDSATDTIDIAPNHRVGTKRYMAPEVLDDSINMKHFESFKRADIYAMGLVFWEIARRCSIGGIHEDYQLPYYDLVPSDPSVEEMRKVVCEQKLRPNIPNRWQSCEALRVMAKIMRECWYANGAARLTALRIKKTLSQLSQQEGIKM
Procedure, shortened: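 TR-FRET kinase format: compound dose range 10 μM–25 pM equilibrated 60 min with human ALK5 and ULight-labelled topoisomerase 2α peptide in HEPES/MgCl2 buffer pH 7.5 with DTT. Reaction started with ATP (125 μM stock, 5× final), 60 min at 37° C, stopped with EDTA/Eu-anti-phospho antibody; pKi derived from pIC50 via Cheng-Prusoff.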

Structure (SMILES) | Ki [2] [nM] | IC50 [1] [nM]
CC(C)N1CCN(CCNc2cnc3ccc(-c4nc[nH]c4-c4cc(Cl)c(F)cc4F)cc3c2)CC1 [Compound 22-4, 6-(5-(5-chloro-2,4-difluorophenyl)-1H-imidazol-4-yl)-N-(2-(4-isopropylpiperazin-1-yl)ethyl)quinolin-3-amine] | 0.0398 to 0.316 | 25.1 to 158
Fc1cc(F)c(-c2[nH]cnc2-c2ccc3ncc(NCCN4CCNCC4)cc3c2)cc1Cl [Compound 22-5, 6-[5-(5-chloro-2,4-difluoro-phenyl)-1H-imidazol-4-yl]-N-(2-piperazin-1-ylethyl)quinolin-3-amine] | 0.0398 to 0.316 | 25.1 to 158
O=C(O)[C@H]1CN(c2cnc3ccc(-c4nc[nH]c4-c4cc(Cl)c(F)cc4F)cc3c2)CCN1 [Compound 22-6, (2R)-4-[6-[5-(5-chloro-2,4-difluoro-phenyl)-1H-imidazol-4-yl]-3-quinolyl]piperazine-2-carboxylic acid] | 3.98 to 31.6 | 1580 to 10000
NCCn1cc(-c2cnc3ccc(-c4nc[nH]c4-c4ccc(F)c(F)c4)cc3c2)cn1 [Compound 23-1, 2-(4-(6-(5-(3,4-difluorophenyl)-1H-imidazol-4-yl)quinolin-3-yl)-1H-pyrazol-1-yl)ethan-1-amine] | 0.0398 to 0.316 | 25.1 to 158
CNCCn1cc(-c2cnc3ccc(-c4nc[nH]c4-c4ccc(F)c(F)c4)cc3c2)cn1 [Compound 23-2, 2-[4-[6-[5-(3,4-difluorophenyl)-1H-imidazol-4-yl]-3-quinolyl]pyrazol-1-yl]-N-methyl-ethanamine] | 0.0398 to 0.316 | 25.1 to 158
N[C@@H]1CCCC[C@H]1n1cc(-c2cnc3ccc(-c4nc[nH]c4-c4ccc(F)c(F)c4)cc3c2)cn1 [Compound 23-3, (1R,2R)-2-(4-(6-(5-(3,4-difluorophenyl)-1H-imidazol-4-yl)quinolin-3-yl)-1H-pyrazol-1-yl)cyclohexan-1-amine] | 0.0398 to 0.316 | 25.1 to 158
CC(C)N1CCN(CCNc2cnc3ccc(-c4nc[nH]c4-c4ccc(F)c(F)c4)cc3c2)CC1 [Compound 23-4, 6-(5-(3,4-difluorophenyl)-1H-imidazol-4-yl)-N-(2-(4-isopropylpiperazin-1-yl)ethyl)quinolin-3-amine] | 3.98 to 31.6 | 25.1 to 158
Fc1ccc(-c2[nH]cnc2-c2ccc3ncc(NCCN4CCNCC4)cc3c2)cc1F [Compound 23-5, 6-[5-(3,4-difluorophenyl)-1H-imidazol-4-yl]-N-(2-piperazin-1-ylethyl)quinolin-3-amine] | 3.98 to 31.6 | 200 to 1260
CNCCn1cc(-c2cnc3ccc(-c4nc[nH]c4-c4cccc(Cl)c4)cc3c2)cn1 [Compound 24-1, 2-(4-(6-(5-(3-chlorophenyl)-1H-imidazol-4-yl)quinolin-3-yl)-1H-pyrazol-1-yl)-N-methylethan-1-amine] | ≤ 0.0316 | ≤ 20
CC(C)N1CCN(CCNc2cnc3ccc(-c4nc[nH]c4-c4cccc(Cl)c4)cc3c2)CC1 [Compound 24-2, 6-(5-(3-chlorophenyl)-1H-imidazol-4-yl)-N-(2-(4-isopropylpiperazin-1-yl)ethyl)quinolin-3-amine] | 0.398 to 3.16 | 25.1 to 158
C[C@@H]1CN(CCNc2cnc3ccc(-c4nc[nH]c4-c4cccc(Cl)c4)cc3c2)C[C@H](C)N1 [Compound 24-3, 6-[5-(3-chlorophenyl)-1H-imidazol-4-yl]-N-[2-[(3R,5S)-3,5-dimethylpiperazin-1-yl]ethyl]quinolin-3-amine] | 0.398 to 3.16 | 25.1 to 158
Clc1cccc(-c2[nH]cnc2-c2ccc3ncc(NCCN4CCNCC4)cc3c2)c1 [Compound 24-4, 6-[5-(3-chlorophenyl)-1H-imidazol-4-yl]-N-(2-piperazin-1-ylethyl)quinolin-3-amine] | 0.398 to 3.16 | 25.1 to 158
CNC1CCN(c2cnc3ccc(-c4c(-c5cc(Cl)ccc5F)[nH]c5cccnc45)nc3c2)CC1 [Compound 25-1, 1-[6-[2-(5-chloro-2-fluoro-phenyl)-1H-pyrrolo[3,2-b]pyridin-3-yl]-1,5-naphthyridin-3-yl]-N-methyl-piperidin-4-amine] | 3.98 to 31.6 | 200 to 1260

Continued, in another order:

Ki [2] [nM] | Structure (SMILES) | IC50 [1] [nM]
0.398 to 3.16 | CNCCn1cc(-c2cnc3ccc(-c4c(-c5cc(Cl)ccc5F)[nH]c5cccnc45)nc3c2)cn1 [Compound 25-2, 2-[4-[6-[2-(5-chloro-2-fluoro-phenyl)-1H-pyrrolo[3,2-b]pyridin-3-yl]-1,5-naphthyridin-3-yl]pyrazol-1-yl]-N-methyl-ethanamine] | 200 to 1260
0.0398 to 0.316 | CNCCn1cc(-c2cnc3ccc(-c4c(-c5cc(Cl)c(F)cc5F)[nH]c5cccnc45)nc3c2)cn1 [Compound 26-1, 2-[4-[6-[2-(5-chloro-2,4-difluoro-phenyl)-1H-pyrrolo[3,2-b]pyridin-3-yl]-1,5-naphthyridin-3-yl]pyrazol-1-yl]-N-methyl-ethanamine] | 200 to 1260
3.98 to 31.6 | CNCCn1cc(-c2cnc3ccc(-c4c(-c5ccc(F)c(F)c5)[nH]c5cccnc45)nc3c2)cn1 [Compound 27-1, 2-[4-[6-[2-(3,4-difluorophenyl)-1H-pyrrolo[3,2-b]pyridin-3-yl]-1,5-naphthyridin-3-yl]pyrazol-1-yl]-N-methyl-ethanamine] | 25.1 to 158
0.0398 to 0.316 | CC(C)N1CCN(CCNc2cnc3ccc(-c4c[nH]nc4-c4cccc(Cl)c4)nc3c2)CC1 [Compound 28-1, 6-(3-(3-chlorophenyl)-1H-pyrazol-4-yl)-N-(2-(4-isopropylpiperazin-1-yl)ethyl)-1,5-naphthyridin-3-amine] | 25.1 to 158
0.398 to 3.16 | CC(C)N1CCN(CCNc2cnc3ccc(-c4nc[nH]c4-c4cccc(Cl)c4)nc3c2)CC1 [Compound 29-1, 6-(5-(3-chlorophenyl)-1H-imidazol-4-yl)-N-(2-(4-isopropylpiperazin-1-yl)ethyl)-1,5-naphthyridin-3-amine] | ≤ 20
0.398 to 3.16 | C[C@@H]1CN(CCNc2cnc3ccc(-c4nc[nH]c4-c4cccc(Cl)c4)nc3c2)C[C@H](C)N1 [Compound 29-2, 6-[5-(3-chlorophenyl)-1H-imidazol-4-yl]-N-[2-[rac-(3R,5S)-3,5-dimethylpiperazin-1-yl]ethyl]-1,5-naphthyridin-3-amine] | 25.1 to 158
0.398 to 3.16 | COC(=O)CC1CN(c2cnc3ccc(-c4nc[nH]c4-c4cccc(Cl)c4)nc3c2)CCN1 (stereo not drawn) [Compound 29-3, methyl 2-(4-(6-(5-(3-chlorophenyl)-1H-imidazol-4-yl)-1,5-naphthyridin-3-yl)piperazin-2-yl)acetate] | 25.1 to 158
0.398 to 3.16 | O=C(O)CC1CN(c2cnc3ccc(-c4nc[nH]c4-c4cccc(Cl)c4)nc3c2)CCN1 (stereo not drawn) [Compound 29-4, 2-(4-(6-(5-(3-chlorophenyl)-1H-imidazol-4-yl)-1,5-naphthyridin-3-yl)piperazin-2-yl)acetic acid] | 1580 to 10000
